Data as given in patent publication US20090076044A1, “VEGFR INHIBITORS CONTAINING A ZINC BINDING MOIETY” (priority 2007, published 2009).

How the values were obtained:
Assay type in all cases: biochemical
[1] = test system: HDAC; assay: HDAC fluorimetric assay kit (HeLa nuclear extract)
Procedure: (b) An In Vitro Assay which Determines the Ability of a Test Compound to Inhibit HDAC Enzymatic Activity.
HDAC inhibitors were screened using an HDAC fluorimetric assay kit (AK-500, Biomol, Plymouth Meeting, Pa.). Test compounds were dissolved in dimethylsulphoxide (DMSO) to give a 20 mM working stock concentration. Fluorescence was measured on a WALLAC Victor 2 plate reader and reported as relative fluorescence units (RFU). Data were plotted using GraphPad Prism (v4.0a) and IC50's calculated using a sigmoidal dose response curve fitting algorithm. Each assay was setup as follows: Defrosted all kit components and kept on ice until use. Diluted HeLa nuclear extract 1:29 in Assay Buffer (50 mM Tris/Cl, pH 8.0, 137 mM NaCl, 2.7 mM KCl, 1 mM MgCl2). Prepared dilutions of Trichostatin A (TSA, positive control) and tested compounds in assay buffer (5× of final concentration). Diluted Fluor de Lys™ Substrate in assay buffer to 100 uM (50 fold=2× final). Diluted Fluor de Lys™ developer concentrate 20-fold (e.g. 50 μl plus 950 μl Assay Buffer) in cold assay buffer. Second, diluted the 0.2 mM Trichostatin A 100-fold in the 1× Developer (e.g. 10 μl in 1 ml; final Trichostatin A concentration in the 1× Developer=2 μM; final concentration after addition to HDAC/Substrate reaction=1 μM). Added Assay buffer, diluted trichostatin A or test inhibitor to appropriate wells of the microtiter plate. Added diluted HeLa extract or other HDAC sample to all wells except for negative controls. Allowed diluted Fluor de Lys™ Substrate and the samples in the microtiter plate to equilibrate to assay temperature (e.g. 25 or 37° C. Initiated HDAC reactions by adding diluted substrate (25 μl) to each well and mixing thoroughly. Allowed HDAC reactions to proceed for 1 hour and then stopped them by addition of Fluor de Lys™ Developer (50 μl). Incubated plate at room temperature (25° C.) for 10-15 min. Read samples in a microtiter-plate reading fluorimeter capable of excitation at a wavelength in the range 350-380 nm and detection of emitted light in the range 440-460 nm.

[2] = biological target: T1, human VEGFR2 (Homo sapiens, UniProt P35968); assay: VEGFR2/KDR radioisotope kinase assay; conditions: 100 μM ATP; read-out: VEGFR2 IC50
T1 construct: kinase domain (amino acids 790 to end) fragment; 6xHis (N); made in house; host or cells: Sf21 insect cells (baculovirus)
T1 sequence (P35968 790-1356 limits assumed): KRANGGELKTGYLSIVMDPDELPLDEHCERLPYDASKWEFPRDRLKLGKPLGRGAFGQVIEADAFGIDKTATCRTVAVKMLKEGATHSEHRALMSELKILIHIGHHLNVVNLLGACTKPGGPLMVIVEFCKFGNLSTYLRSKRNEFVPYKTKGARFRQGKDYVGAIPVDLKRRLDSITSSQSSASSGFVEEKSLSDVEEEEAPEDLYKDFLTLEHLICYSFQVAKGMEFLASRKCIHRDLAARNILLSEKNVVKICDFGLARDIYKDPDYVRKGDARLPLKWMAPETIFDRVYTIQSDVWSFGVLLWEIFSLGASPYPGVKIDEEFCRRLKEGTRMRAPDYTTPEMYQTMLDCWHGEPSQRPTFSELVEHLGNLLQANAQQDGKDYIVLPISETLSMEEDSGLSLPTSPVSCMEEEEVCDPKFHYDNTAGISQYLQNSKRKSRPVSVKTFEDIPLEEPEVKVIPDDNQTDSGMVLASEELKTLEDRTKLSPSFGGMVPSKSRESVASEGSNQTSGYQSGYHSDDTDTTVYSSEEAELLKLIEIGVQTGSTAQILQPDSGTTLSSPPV
Procedure: (a) An In Vitro Assay which-Determines the Ability of a Test Compound to Inhibit a Receptor Tyrosine Kinase.
The ability of compounds to inhibit receptor kinase (VEGFR2 and PDGFR-beta) activity was assayed using standard radioisotope assay for kinase. […] The proteins were purified using Ni2+/NTA agarose affinity column to purity
>85% as determined by coomassie blue-stained SDS-PAGE gel. For VEGFR2/KDR assay, p33 ATP tracers were incubated with purified recombinant VEGFR2 kinase to monitor the enzyme activity. In this assay, reactions were carried out in the presence of 0.1 mg/ml VEGFR2 kinase and 0.33 mg/ml myelin basic protein. The reaction was carried out at 30° C. for 120 minutes in a final assay condition contained 50 mM Tris-HCl, pH 7.5, 300 mM NaCl, 0.1 mM EGTA, 0.03% Brij 35, 270 mM sucrose, 1 mM benzamidine, 0.2 mM PMSF, 0.1% 2-mercaptoethanol and 100 μM ATP. An equal volume of 25% TCA was added to stop the reaction and precipitate the labeled proteins. Precipitated proteins were trapped onto glass fiber B filterplates and excess unlabeled p33 ATP was washed off. The plates were allowed to air-dry prior to the addition of 30 uL/well of Packard Microscint 20. The amount of incorporated isotope was measured using a Perkin Elmer TopCount plate reader. Different concentrations of compounds were added to reaction to assess the activity of compounds to inhibit VEGFR2 kinase. IC50 was calculated using Prism software with sigmoidal dose-response curve fitting.

[3] = biological target: T2, human EGFR (Homo sapiens, UniProt P00533); assay: EGFR kinase assay (HTScan EGF Receptor Kinase Assay Kit, DELFIA); conditions: 200 μM ATP
T2 construct: human EGFR (His672-Ala1210); purchased Cell Signaling Technologies; host or cells: baculovirus expression system
T2 sequence (P00533 672-1210): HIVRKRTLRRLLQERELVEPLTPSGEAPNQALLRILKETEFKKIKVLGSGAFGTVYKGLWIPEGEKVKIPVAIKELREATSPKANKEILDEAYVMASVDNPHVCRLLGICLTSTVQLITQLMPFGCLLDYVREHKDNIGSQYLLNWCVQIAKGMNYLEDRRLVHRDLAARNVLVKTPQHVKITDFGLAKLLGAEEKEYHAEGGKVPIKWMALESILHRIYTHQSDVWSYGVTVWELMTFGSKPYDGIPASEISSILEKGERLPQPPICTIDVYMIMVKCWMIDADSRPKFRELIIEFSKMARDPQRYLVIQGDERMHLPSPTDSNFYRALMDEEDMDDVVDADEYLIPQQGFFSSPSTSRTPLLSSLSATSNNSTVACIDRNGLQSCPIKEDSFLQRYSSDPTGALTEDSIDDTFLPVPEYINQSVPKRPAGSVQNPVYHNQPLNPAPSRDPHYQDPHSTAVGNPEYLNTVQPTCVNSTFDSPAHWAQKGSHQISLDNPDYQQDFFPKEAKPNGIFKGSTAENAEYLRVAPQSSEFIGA
Procedure: (e) An In Vitro Assay which Determines the Ability of a Test Compound to Inhibit EGFR Kinase.
The ability of compounds to inhibit receptor kinase (EGFR) activity was assayed using HTScan™ EGF Receptor Kinase Assay Kits (Cell Signaling Technologies, Danvers, Mass.). EGFR tyrosine kinase was obtained as GST-kinase fusion protein which was produced using a baculovirus expression system with a construct expressing human EGFR (His672-Ala1210) (GenBank Accession No. NM_005228) with an amino-terminal GST tag. The protein was purified by one-step affinity chromatography using glutathione-agarose. An anti-phosphotyrosine monoclonal antibody, P-Tyr-100, was used to detect phosphorylation of biotinylated substrate peptides (EGFR), Biotin-PTP1B (Tyr66). Enzymatic activity was tested in 60 mM HEPES, 5 mM MgCl2 5 mM MnCl2 200 μM ATP, 1.25 mM DTT, 3 μM Na3VO4, 1.5 mM peptide, and 50 ng EGF Receptor Kinase. Bound antibody was detected using the DELFIA system (PerkinElmer, Wellesley, Mass.) consisting of DELFIA® Europium-labeled Anti-mouse IgG (PerkinElmer, #AD0124), DELFIA® Enhancement Solution (PerkinElmer, #1244-105), and a DELFIA® Streptavidin coated, 96-well Plate (PerkinElmer, AAAND-0005). Fluorescence was measured on a WALLAC Victor 2 plate reader and reported as relative fluorescence units (RFU). Data were plotted using GraphPad Prism (v4.0a) and IC50's calculated using a sigmoidal dose response curve fitting algorithm.
Test compounds were dissolved in dimethylsulfoxide (DMSO) to give a 20 mM working stock concentration. Each assay was setup as follows: Added 100 μl of 10 mM ATP to 1.25 ml 6 mM substrate peptide. Diluted the mixture with dH2O to 2.5 ml to make 2×ATP/substrate cocktail ([ATP]=[…], [substrate]=3 mM). Immediately transfer enzyme from −80° C. to ice. Allowed enzyme to thaw on ice. Microcentrifuged briefly at 4° C. to bring liquid to the bottom of the vial. Returned immediately to ice. Added 10 μl of DTT (1.25 mM) to 2.5 ml of 4× HTScan™ Tyrosine Kinase Buffer (240 mM HEPES pH 7.5, 20 mM MgCl2, 20 mM MnCl, 12 mM NaVO3) to make DTT/Kinase buffer. Transfer 1.25 ml of DTT/Kinase buffer to enzyme tube to make 4× reaction cocktail ([enzyme]=4 ng/μL in 4× reaction cocktail). Incubated 12.5 μl of the 4× reaction cocktail with 12.5 μl/well of prediluted compound of interest (usually around 10 μM) for 5 minutes at room temperature. Added 25 μl of 2×ATP/substrate cocktail to 25 μl/well preincubated reaction cocktail/compound. Incubated reaction plate at room temperature for 30 minutes. Added 50 μl/well Stop Buffer (50 mM EDTA, pH 8) to stop the reaction. Transferred 25 μl of each reaction and 75 μl dH2O/well to a 96-well streptavidin-coated plate and incubated at room temperature for 60 minutes. Washed three times with 200 μl/well PBS/T (PBS, 0.05% Tween-20). Diluted primary antibody, Phospho-Tyrosine mAb (P-Tyr-100), 1:1000 in PBS/T with 1% bovine serum albumin (BSA). Added 100 μl/well primary antibody. Incubated at room temperature for 60 minutes. Washed three times with 200 μl/well PBS/T. Diluted Europium labeled anti-mouse IgG 1:500 in PBS/T with 1% BSA. Added 100 μl/well diluted antibody. Incubated at room temperature for 30 minutes. Washed five times with 200 μl/well PBS/T. Added 100 μl/well DELFIA® Enhancement Solution. Incubated at room temperature for 5 minutes. Detected 615 nm fluorescence emission with appropriate Time-Resolved Plate Reader.

| IC50 [1] [µM] | IC50 [2] [µM] | IC50 [3] [µM] | SMILES |
| --- | --- | --- | --- |
| < 0.1 | 1 to 10 | – | COc1cc2c(Nc3ccc4occc4c3)ncnc2cc1OCCCCCCC(=O)NO [Compound 6, 7-(4-(benzofuran-5-ylamino)-6-methoxyquinazolin-7-yloxy)-N-hydroxyheptanamide] |
| 0.1 to 1 | – | – | COc1cc2c(Oc3ccc4[nH]c(C)cc4c3F)ncnc2cc1OCCCCC(=O)NO [Compound 9, 5-(4-(4-fluoro-2-methyl-1H-indol-5-yloxy)-6-methoxyquinazolin-7-yloxy)-N-hydroxypentanamide] |
| 0.1 to 1 | – | 0.1 to 1 | COc1cc2c(Nc3ccc4[nH]c(C)cc4c3F)ncnc2cc1OCCCCC(=O)NO [Compound 12, 5-(4-(4-fluoro-2-methyl-1H-indol-5-ylamino)-6-methoxyquinazolin-7-yloxy)-N-hydroxypentanamide] |
